Assays:
Assay type in all cases: cell-based
[1] = test system: luciferase-expressing L. major parasites developing intracellularly inside RAW 264.7 macrophages; assay: Leishmania major intracellular amastigote assay in RAW 264.7 macrophages (luciferase); conditions: RAW264.7, 96 hours, read-out: IC50: I Org. intracellular amastigote Growth L. major, 4 d
Text: Example 107. Assay for Leishmania major Intracellular Amastigote Assay in RAW 264.7 Macrophages
The intracellular amastigote assay is a microtiter plate drug sensitivity assay that uses the activity of luciferase as a measure of proliferation of luciferase-expressing L. major parasites developing intracellularly inside RAW 264.7 macrophages in the presence of antileishmanial drugs or experimental compounds. (Buckner, F. S., and A. J. Wilson. Am J Prop Med Hyg, 2005, 72(5): 600-605.) As the activity of luciferase and its associated luminescence after addition of the substrate, luciferin, is relative to parasite growth, a test compound that inhibits the growth of the parasite will result in a lower luminescence. The luciferase-expressing L. major parasite used in this assay is genetically modified by adding the luciferase coding region to the pLEXSY-hyg2 vector (Jena Biosciences). The luciferase expression construct was created by digesting the luciferase coding region (1.66 kbp) of pGL3-Basic (Promega) by using two restriction enzymes, NcoI/EagI, followed by electrophoretic separation of the luciferase coding region on a 1% agarose gel. The luciferase coding region was then ligated into pLEXSY-hyg2 vector (Jena Biosciences) which had previously been digested with NcoI/NotI. The vector was linearized with SwaI and subsequently gel purified prior to transfection into L. major parasites. Transfections were carried out by electroporation at 480V, 13Ω, and 500 μF (0.4 mL of 1×10^8 parasites/mL, and 0.1 mL of 10 μg DNA). Selection for transfectants was then carried out using hygromycin B (100 μg/mL). RAW 264.7 macrophages were cultured in DMEM media (ATCC Cat #30-2002) supplemented with heat-inactivated 10% FBS (Invitrogen Cat #10438-034). To begin the assay, macrophages were harvested from culture by removing all spent media, adding in 10 mL fresh media, scraping cells, and counted using Trypan Blue. The cells were resuspended in DMEM/10% HIFBS media at 2.0×10^5 cells/mL, and then dispensed in a volume of 50 μL to yield a final concentration of 10,000 macrophages/well in 384 well tissue-culture treated sterile white plates (Nunc Cat #12-565-343) using a Tecan EVO Freedom robotics system. The plates were then incubated at 37° C. overnight in 5% CO2 atmosphere for 24 hours. After overnight incubation, the media was removed from each well using the Tecan EVO Freedom robot, and L. major promastigotes were added to each well and allowed to invade the RAW macrophages. Promastigotes were cultured in Schneider's medium (Invitrogen Cat #11720-067) supplemented with 20% heat inactivated FBS. Metacyclic stage promastigotes provide the best invasion for this assay, and cultures should be grown to increase the percentage of metacyclic promastigotes for best results. Promastigotes were harvested from culture, counted, suspended at 2×10^6 promastigotes/mL in DMEM/HIFBS media, and 100,000 promastigotes were dispensed per well in a volume of 50 μL. After overnight incubation, the media was removed from each well using the Tecan Freedom EVO robot, and each well was subsequently washed three times with 40 μF of fresh DMEM/HIFBS medium to remove all extracellular promastigotes. After the third wash, 69.2 μF of DMEM/HIFBS medium was added to each well using the Tecan EVO Freedom robot. Drug plates were prepared with the Tecan EVO Freedom using sterile 96 well plates containing twelve duplicate two-fold serial dilutions of each test compound suspended in DMSO. 7.8 μF of diluted test compound was added to the 69.2 μF of media present in each well providing a 10 fold final dilution of compound. The final concentration range tested was 0.5 to 10,000 ng/ml for all assays. The plates were next incubated at 37° C. and 5% CO2 for 96 hours. After 96 hours of incubation, 7.5 μF of a luciferin solution (Caliper Fife Science) diluted to 150 μg/mF was added to each well, and the plates were incubated for 30 minutes at 37° C., in the dark. […]

[2] = test system: IL3000 T. congolense (drug sensitive) strain; assay: In vitro Alamar Blue 72 h drug sensitivity assay for T. congolense; conditions: Trypanosoma congolense; bloodstream form, 69 h + 3 h resazurin, 34° C.; classes A-C; read-out: IC50: I Org. Growth T. congolense IL-3000, 3 d
Procedure: Example 106. In Vitro Alamar Blue 72 h Drug Sensitivity Assay for T. congolense
Compounds were tested in vitro for chemotherapeutic potency against the IL3000 T. congolense (drug sensitive) strain, using the Alamar Blue assay with several modifications. Test compounds were prepared as 10 mg/mL DMSO stocks for each assay run. Compounds were assayed in at least three separate, independent test runs and an 11-point dilution curve was used to determine the IC50 values. Bloodstream form trypanosomes were supported in HMI media containing 20% bovine serum and were incubated with test compounds for 69 h at 34° C. in a humidified atmosphere containing 5% CO2. Thereafter, 10 μL of Resazurin dye (12.5 mg in 100 mL of phosphate buffered saline, Sigma-Aldrich, Buchs, Switzerland) were added for an additional 3 h. Plates were then read using a fluorescent plate reader (Spectramax, Gemini XS, Bucher Biotec, Basel, Switzerland) using an excitation wavelength of 536 nm and an emission wavelength of 588 nm. Data points were averaged to generate sigmoidal dose-response curves and IC50 values were determined using Softmax Pro 5.2 software.

[3] = test system: TdTomato-modified T. cruzi (CL strain) in Vero cells; assay: In vitro IC50 measurement of T. cruzi amastigote killing using TdTomato-modified T. cruzi (CL strain); conditions: Trypanosoma cruzi, 72 h, fluorescence, read-out: IC50: I Org. amastigote Growth T. cruzi CL TdTomato, 3 d
Procedure: Example 112. In Vitro IC50 Measurement of T. cruzi Amastigote Killing Using TdTomato-Modified T. cruzi (CL Strain)
The T. cruzi parasites used in this assay were genetically modified to express Td Tomato fluorescent protein. Vero cells (African green monkey kidney epithelial cells) were harvested from continuous cultures using trypsin and added to the inner 60 wells of 96-well Greiner Bio One plates (plate catalog #655090) at 200 ul/well of […]. Cells were allowed to adhere for 1 h before infection with T. cruzi. T. cruzi for infection were harvested from previously-infected Vero cells, washed, pelleted and resuspended at 5×10^6/mL. 50 uL of parasites were added to each well containing Vero cells. Compounds were prepared from 5 mM stock concentrations in DMSO to final concentrations in wells ranging from 5 uM to 5 nM. Wells were provided for negative controls, lacking compounds. Plates were placed into a 37° C. incubator for 20 min, then a “Day 0” reading was taken on a Synergy H4 plate reader to record initial fluorescence levels, at 544 (excitation) and 612 nm (emission). 96-well plates were placed in Tupperware containers with wet paper towels and incubated at 37° C. incubator for 72 h. After 72 h plates were reread (Day 3 reading) and data analyzed using Excel and/or Graphpad software. Day 0 fluorescence was subtracted from Day 3 to remove input parasite fluorescence. Growth curves are generated and 50% and 90% inhibitory concentrations are determined by nonlinear regression analysis.

## Cc1c(C(=O)Nc2ccc3c(c2)B(O)OC3)nnn1CC(F)(F)F [Example 39, N-(1-hydroxy-1,3-dihydrobenzo[c][1,2]oxaborol-6-yl)-5-methyl-1-(2,2,2-trifluoroethyl)-1H-1,2,3-triazole-4-carboxamide]
[1]
  IC50: ≤ 1000 nM

## O=C(Nc1ccc2c(c1)B(O)OC2)c1nnn(C2CC2)c1C(F)(F)F [Example 29, 1-cyclopropyl-N-(1-hydroxy-1,3-dihydrobenzo[c][1,2]oxaborol-6-yl)-5-(trifluoromethyl)-1H-1,2,3-triazole-4-carboxamide]
[1]
  IC50: ≤ 1000 nM

## CCn1nnc(C(=O)Nc2ccc3c(c2)B(O)OC3)c1C(F)(F)F [Example 28, 1-ethyl-N-(1-hydroxy-1,3-dihydrobenzo[c][1,2]oxaborol-6-yl)-5-(trifluoromethyl)-1H-1,2,3-triazole-4-carboxamide]
[1]
  IC50: ≤ 1000 nM

## Cc1c(C(=O)Nc2ccc3c(c2)B(O)OC3)nnn1CC1CCCC1 [Example 44, 1-(cyclopentylmethyl)-N-(1-hydroxy-1,3-dihydrobenzo[c][1,2]oxaborol-6-yl)-5-methyl-1H-1,2,3-triazole-4-carboxamide]
[1]
  IC50: 10000 to 50000 nM

## O=C(Nc1ccc2c(c1)B(O)OC2)c1nnn(C2CCC2)c1C(F)(F)F [Example 45, 1-cyclobutyl-N-(1-hydroxy-1,3-dihydrobenzo[c][1,2]oxaborol-6-yl)-5-(trifluoromethyl)-1H-1,2,3-triazole-4-carboxamide]
[1]
  IC50: 10000 to 50000 nM

## O=C(Nc1ccc2c(c1)B(O)OC2)c1nnn(CC2CC2)c1C(F)(F)F [Example 34, 1-(cyclopropylmethyl)-N-(1-hydroxy-1,3-dihydrobenzo[c][1,2]oxaborol-6-yl)-5-(trifluoromethyl)-1H-1,2,3-triazole-4-carboxamide]
[1]
  IC50: ≤ 1000 nM

## COCCn1nnc(C(=O)Nc2ccc3c(c2)B(O)OC3)c1C [Example 40, N-(1-hydroxy-1,3-dihydrobenzo[c][1,2]oxaborol-6-yl)-1-(2-methoxyethyl)-5-methyl-1H-1,2,3-triazole-4-carboxamide]
[1]
  IC50: ≤ 1000 nM

## COCCc1c(C(=O)Nc2ccc3c(c2)B(O)OC3)nnn1-c1ccccn1 [Example 52, N-(1-hydroxy-1,3-dihydrobenzo[c][1,2]oxaborol-6-yl)-5-(2-methoxyethyl)-1-(pyridin-2-yl)-1H-1,2,3-triazole-4-carboxamide]
[2]
  IC50: 100 to 300 nM
[3]
  IC50: 1100 to 10000 nM

## CCCn1nnc(C(=O)Nc2ccc3c(c2)B(O)OC3)c1C [Example 36, N-(1-hydroxy-1,3-dihydrobenzo[c][1,2]oxaborol-6-yl)-5-methyl-1-propyl-1H-1,2,3-triazole-4-carboxamide]
[1]
  IC50: ≤ 1000 nM

## CC(C)c1c(C(=O)Nc2ccc3c(c2)B(O)OC3)nnn1-c1ccccn1 [Example 51, N-(1-hydroxy-1,3-dihydrobenzo[c][1,2]oxaborol-6-yl)-5-isopropyl-1-(pyridin-2-yl)-1H-1,2,3-triazole-4-carboxamide]
[2]
  IC50: 100 to 300 nM
[3]
  IC50: 600 to 1000 nM

## Cc1c(C(=O)Nc2ccc3c(c2)B(O)OC3)nnn1C1CC1 [Example 38, 1-cyclopropyl-N-(1-hydroxy-1,3-dihydrobenzo[c][1,2]oxaborol-6-yl)-5-methyl-1H-1,2,3-triazole-4-carboxamide]
[1]
  IC50: ≤ 1000 nM

## Cc1c(C(=O)Nc2ccc3c(c2)B(O)OC3)nnn1CC1CC1 [Example 43, 1-(cyclopropylmethyl)-N-(1-hydroxy-1,3-dihydrobenzo[c][1,2]oxaborol-6-yl)-5-methyl-1H-1,2,3-triazole-4-carboxamide]
[1]
  IC50: 10000 to 50000 nM

## CC(C)n1nnc(C(=O)Nc2ccc3c(c2)B(O)OC3)c1C(F)(F)F [Example 32, N-(1-hydroxy-1,3-dihydrobenzo[c][1,2]oxaborol-6-yl)-1-isopropyl-5-(trifluoromethyl)-1H-1,2,3-triazole-4-carboxamide]
[1]
  IC50: ≤ 1000 nM

## Cc1c(C(=O)Nc2ccc3c(c2)B(O)OC3)nnn1C(C)C [Example 37, N-(1-hydroxy-1,3-dihydrobenzo[c][1,2]oxaborol-6-yl)-1-isopropyl-5-methyl-1H-1,2,3-triazole-4-carboxamide]
[1]
  IC50: ≤ 1000 nM

## O=C(Nc1ccc2c(c1)B(O)OC2)c1nnn(C2CCCC2)c1C(F)(F)F [Example 30, 1-cyclopentyl-N-(1-hydroxy-1,3-dihydrobenzo[c][1,2]oxaborol-6-yl)-5-(trifluoromethyl)-1H-1,2,3-triazole-4-carboxamide]
[1]
  IC50: ≤ 1000 nM

## Cc1c(C(=O)Nc2ccc3c(c2)B(O)OC3)nnn1C1CCCC1 [Example 41, 1-cyclopentyl-N-(1-hydroxy-1,3-dihydrobenzo[c][1,2]oxaborol-6-yl)-5-methyl-1H-1,2,3-triazole-4-carboxamide]
[1]
  IC50: ≤ 1000 nM

## COCCn1nnc(C(=O)Nc2ccc3c(c2)B(O)OC3)c1C(F)(F)F [Example 33, N-(1-hydroxy-1,3-dihydrobenzo[c][1,2]oxaborol-6-yl)-1-(2-methoxyethyl)-5-(trifluoromethyl)-1H-1,2,3-triazole-4-carboxamide]
[1]
  IC50: ≤ 1000 nM

## O=C(Nc1ccc2c(c1)B(O)OC2)c1nnn(CC2CCCC2)c1C(F)(F)F [Example 35, 1-(cyclopentylmethyl)-N-(1-hydroxy-1,3-dihydrobenzo[c][1,2]oxaborol-6-yl)-5-(trifluoromethyl)-1H-1,2,3-triazole-4-carboxamide]
[1]
  IC50: ≤ 1000 nM

## CCCn1nnc(C(=O)Nc2ccc3c(c2)B(O)OC3)c1C(F)(F)F [Example 31, N-(1-hydroxy-1,3-dihydrobenzo[c][1,2]oxaborol-6-yl)-1-propyl-5-(trifluoromethyl)-1H-1,2,3-triazole-4-carboxamide]
[1]
  IC50: ≤ 1000 nM

From patent US11691992B2 (Anacor Pharmaceuticals, Inc., priority 2017, dated 2023)
